Measured values: PMC8449414, “Rational design of ASCT2 inhibitors using an integrated experimental-computational approach” (Proceedings of the National Academy of Sciences of the …, 2021)

Assays:
hASCT1 = target: T1, hASCT1 (Homo sapiens, UniProt P43007); test: Electrophysiology: SLC1 specificity, anion current in transfected HEK293 cells; format: cell-based; settings: for Ki: read-out: Binding affinity Ki
T1 construct: expressed in transfected cells; host or cells: HEK293 (ATCC CRL-11268), transient transfection
T1 sequence (P43007 1-532): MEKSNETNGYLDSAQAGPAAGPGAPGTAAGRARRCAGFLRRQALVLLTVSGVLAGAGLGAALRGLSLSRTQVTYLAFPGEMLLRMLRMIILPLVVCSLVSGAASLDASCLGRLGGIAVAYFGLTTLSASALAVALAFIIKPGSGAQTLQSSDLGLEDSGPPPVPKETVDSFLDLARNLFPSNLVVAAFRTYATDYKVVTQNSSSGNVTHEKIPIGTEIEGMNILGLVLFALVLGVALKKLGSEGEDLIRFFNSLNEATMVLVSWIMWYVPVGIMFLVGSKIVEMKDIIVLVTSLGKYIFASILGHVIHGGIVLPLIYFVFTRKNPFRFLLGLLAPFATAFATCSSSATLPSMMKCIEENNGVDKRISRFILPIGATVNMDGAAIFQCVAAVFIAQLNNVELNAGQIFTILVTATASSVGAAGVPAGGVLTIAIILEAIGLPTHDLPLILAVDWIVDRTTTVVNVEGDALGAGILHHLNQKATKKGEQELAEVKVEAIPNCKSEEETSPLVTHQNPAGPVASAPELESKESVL
Experimental: (§1) We also tested the specificity of Lc-BPE for ASCT2 over other SLC1 family members (ASCT1, EAAT1-3, and EAAT5).
(§2) Fig. S3. SLC-1 specificity of Lc-BPE. (A) Electrophysiological current responses to the application of 100 µM glutamate (red trace) or varying concentrations of Lc-BPE (black, blue and red traces) to rEAAT1-expressing cells HEK293 cells. (B-C) Dose response curves obtained from currents recorded a fter application of Lc-BPE extracellularly to cells transiently expressing hASCT2, rASCT2, hASCT1 (panel B) and rEAAT1, rEAAT2, rEAAT3 and hEAAT5 (panel C) respectively. For hASCT2, rASCT2 and hASCT1, intracellular pipette solution contained 10 mM alanine and 130 mM NaSCN. For rEAAT1, rEAAT2, rEAAT3 and hEAAT5, intracellular solution contained 10 mM glutamate and 130 mM NaSCN. Extracellular solution was the same for all the experiments (140 mM NaCl). The voltage was 0 mV. […]
(§3) Cell culture and transfection
(§4) Human embryonic kidney 293 (HEK293, ATCC CRL -11268) cells were cultured in DMEM media supplemented with 10% (v/v) fetal bovine serum (FBS), 2 mM glutamine, 1% penicillin streptomycin solution, 1 mM sodium pyruvate and non -essential amino acids. Cells were maintained at 370C in a fully humidified atmosphere containing 5% CO2. rASCT2, hASCT2, hASCT1, EAAT1, EAAT2, EAAT3, EAAT5 and YFP complementary DNAs were each used to transiently transfect HEK293 using POLYPLUS Jet-prime transfection reagent. Cells were analyzed using electrophysiological techniques 24-40 hours after transfection.
(§5) Electrophysiological techniques
(§6) Electrophysiological experiments were performed as described previously 1,2. Stock solutions of inhibitor was prepared in dimethyl sulfoxide (DMSO) up to 100 mM.
(§7) Dilutions to working concentrations were made using external buffer. The highest […]
(§8) cells. For rASCT2, hASCT2 and hASCT1, external buffer contained 140 mM NaCl, 2 mM MgCl2, 2 mM CaCl2, and 10 mM HEPES, pH 7.40 while internal pipette solution comprised of 130 mM NaSCN, 2 mM MgCl2, 10 mM EGTA, 10 mM HEPES and 10mM alanine, pH 7.40. For specificity experiments with EAAT1, EAAT2, EAAC1 and EAAT5, internal solution contained 10 mM glutamate instead of alanine. Compounds were applied to HEK293 cells expressing DNA of interest suspended from a current recording electrode in whole cell configuration44 through a rapid solution exchange device described previously45. Cells are immersed in external buffer bath used to dissolve the inhibitors. The open pipette resistance was between 3 and 6 MΩ. Series resistance was not compensated in these experiments due to relatively small currents. Current s traces were recorded using an Adams and List EPC7 amplifier and digitized using a Molecular Devices Digidata A/D converter.
(§9) Data analysis was performed as described previously 46. Linear and nonlinear curve fitting of the experimental data were analyzed using MicroCal Origin software. Linear plots were fitted using the general equation (y = a + bx) obtaining adjusted R 2 and Pearson’s r values. Nonlinear dose–response relationships were fitted with a Michaelis – Menten-like equation to obtain apparent Ki values in the absence of substrate. For competition studies, equation I = I1 + I2 [Inh]/(Ki + [Inh]) was used for fitting, where I1 is the alanine induced current without the inhibitor, and I2 is the maximum current in the presence of saturating inhibitor concentration, [Inh]max 1,2. At least five experiments were performed for each compound. Unless stated otherwise, the error bars in all our graphs represent mean ± SD .
(§10) ASCT2 expression and purification
(§11) Human ASCT2 (hASCT2) was produced in Pichia pastoris X-33 strain (Invitrogen) in fermentor26 and purified using DDM and CHS (Anatrace) and 1 mM L-glutamine (Merck) to maintain protein stability 27. Membranes representing ~1.5 g cells were solubilized in buffer A (25 mM Tris-HCl, pH 7.4, 300 mM NaCl, 10% (vol/vol) glycerol, 1 mM L - glutamine, 1% DDM and 0.1% CHS) for 1 h at 4 °C; ultracentrifuged (30 min, 442,907 × […]

rEAAT1 = target: T2, rEAAT1 (Rattus norvegicus, UniProt P24942); test: as above; format: cell-based; settings: 0 mV, 10 mM glutamate and 130 mM NaSCN internal, No current = no outward current up to highest concentration tested (§ 20-50, || 100-400, # 1500-2500 µM); for Ki: read-out: Binding affinity Ki
T2 construct: expressed in transfected cells; host or cells: HEK293 (ATCC CRL-11268), transient transfection
T2 sequence (P24942 1-543): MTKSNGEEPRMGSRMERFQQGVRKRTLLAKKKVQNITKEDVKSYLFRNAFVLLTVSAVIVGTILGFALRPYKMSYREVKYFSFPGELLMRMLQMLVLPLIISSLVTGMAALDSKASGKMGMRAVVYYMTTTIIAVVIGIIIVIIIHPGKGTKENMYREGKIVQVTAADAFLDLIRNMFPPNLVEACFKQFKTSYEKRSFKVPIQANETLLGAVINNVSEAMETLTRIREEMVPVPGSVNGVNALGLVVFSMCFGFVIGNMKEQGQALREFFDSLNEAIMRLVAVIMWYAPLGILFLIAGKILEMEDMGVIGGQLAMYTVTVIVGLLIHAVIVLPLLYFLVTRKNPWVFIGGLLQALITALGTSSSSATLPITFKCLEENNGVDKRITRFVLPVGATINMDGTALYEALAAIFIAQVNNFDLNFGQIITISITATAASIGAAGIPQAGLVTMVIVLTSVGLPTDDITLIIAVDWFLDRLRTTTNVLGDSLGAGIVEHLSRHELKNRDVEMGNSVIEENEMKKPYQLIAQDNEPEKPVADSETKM
Experimental: as §1, §2, §3, §4, §5, §6, §7, §8, §9, §10, §11

[1] = HEK293 cells, 0 mV, 10 mM alanine and 130 mM NaSCN internal, No current = no outward current up to highest concentration tested (§ 20-50, || 100-400, # 1500-2500 µM)

Row | Structure (SMILES) | Ki (hASCT1; [1]) | Binding affinity Ki (rEAAT1) | Ki (rEAAT1) | apparent affinity of hASCT1 lower than that of rASCT2 (hASCT1; hASCT1 versus rASCT2) | Binding affinity Ki (hASCT1; [1])
1 | N[C@@H](COC(=O)c1cccnc1)C(=O)O [ERA-28] | 549 ± 306 µM | No current |  |  | 
2 | O=C(O[C@@H]1CN[C@H](C(=O)O)C1)c1ccc(C(O)c2ccccc2)cc1 (stereo partly shown) [ERA-9] | 43 ± 13.4 µM |  | 39.5 µM |  | 
3 | N[C@@H](COC(=O)c1ccccc1)C(=O)O [ERA-25] | 170 ± 26.7 µM |  | 195 ± 48.4 µM |  | 
4 | O=C(O[C@@H]1CN[C@H](C(=O)O)C1)c1ccc(-c2ccc(C(F)(F)F)cc2)cc1 [ERA-5] | 0.44 ± 0.14 µM |  | 1 ± 0.25 µM |  | 
5 | O=C(O[C@@H]1CN[C@H](C(=O)O)C1)c1ccc(OCc2ccccc2)cc1 [ERA-31] | > 100 µM | No current |  |  | 
6 | N[C@@H](COC(=O)c1ccc(NC(=O)c2ccccc2)cc1)C(=O)O [ERA-21] | 11.6 ± 1.75 µM |  | 9.57 ± 1.61 µM |  | 
7 | O=C(O[C@@H]1CN[C@H](C(=O)O)C1)C(c1ccccc1)c1ccccc1 [ERA-29] |  | No current |  |  | 
8 | Cc1ccccc1-c1ccc(C(=O)O[C@@H]2CN[C@H](C(=O)O)C2)cc1 [ERA-6] | 1.33 ± 0.3 µM |  | 1 ± 0.11 µM |  | 
9 | O=C(O[C@@H]1CN[C@H](C(=O)O)C1)c1ccc(-c2ccc(F)cc2)cc1 [ERA-4] | 0.9 ± 0.08 µM |  | 0.4 ± 0.07 µM |  | 
10 | O=C(Nc1ccc(C(=O)O[C@@H]2CN[C@H](C(=O)O)C2)cc1)c1ccc(C(F)(F)F)cc1 [ERA-11] | 8.51 ± 3.87 µM |  | 9.6 ± 7.5 µM |  | 
11 | O=C(O[C@H]1CN[C@H](C(=O)O)C1)c1ccc(C(=O)c2ccccc2)cc1 [ERA-35] |  | No current |  |  | 
12 | O=C(O[C@@H]1CN[C@H](C(=O)O)C1)c1ccc(-c2ccccc2)cc1 [Lc-BPE, L-cis hydroxyproline biphenyl ester] |  |  |  | ~3.8 fold | 
13 | O=C(O[C@@H]1CN[C@H](C(=O)O)C1)c1ccccc1-c1ccccc1 [ERA-3] |  | No current |  |  | No current
14 | O=C(O[C@@H]1CN[C@H](C(=O)O)C1)c1ccc(Oc2ccccc2)cc1 [ERA-16] | 5.71 ± 0.91 µM |  | 8.18 ± 1.77 µM |  | 
